Tested on: Glucokinase known as hexokinase IV (human GK isoform 1, pancreas form and human GK isoform 2, liver form)
Experiment: Glucokinase enzymatic activity assay (G6PDH-coupled, NADH absorbance at 340 nm)
Format: biochemical
Conditions: 5 mM glucose, 1 mM ATP, 37 nM GK, 10 min at room temperature
Method: Glucokinase known as hexokinase IV (human GK isoform 1, pancreas form and human GK isoform 2, liver form) was cloned into an expression vector pET15 fx (Novagen Co.), transformed to E. coli BL21 (DE3) (Invitrogen Co.) strain, expressed, and purified using a nickel column. Then, the glucokinase obtained from dialysis was used in the following assay.
Glucokinase assay was performed by measuring absorbance according to the conventional manner. Briefly speaking, glucokinase converts the substrate glucose to glucose-6-phosphate under certain conditions, and glucose-6-phosphate dehydrogenase irreversibly converts glucose-6-phosphate to gluconate-6-phosphate. During this procedure, NADH is formed, and its absorbance is measured to calculate the enzymatic activity.
In the measurement of the enzymatic activity, each compound was diluted by two-fold from the maximum to the minimum concentrations, and 2 μl of each solution was added to 96 well UV plate (BD bioscience). 60 μl of the first mixture (final concentrations 25 mM Hepes, 25 mM KCl, 2 mM MgCl2, 1 mM DTT) was added, and thoroughly mixed. 38 μl of the enzyme mixture (final concentrations 1 mM ATP, 1 mM NAD, 5 mM glucose, 0.85U G6PDH, 37 nM GK) was added (final volume 100 μl), and the mixture was reacted for 10 min at room temperature. The absorbance of NADH was measured at 340 nm using a UV spectrometer (Molecular Device).
The enzyme activating abilities of the compounds according to the present invention are represented as AC1.5 (the compound concentration at which the enzymatic activity is increased by 1.5 times, nM), which is in the range of 0.001 uM to 30 uM or less, preferably 0.001 uM to 10 uM, more preferably 0.001 uM to 1 uM.

| SMILES | AC1.5 (the compound concentration at which the enzymatic activity is increased by 1.5 times) [nM] |
| --- | --- |
| Cc1cc(NC2CCC(=O)CC2)c2[nH]c(C3=N[C@H](CC(=O)O)CS3)cc2c1 [Example 63, {(R)-2-[5-methyl-7-(4-oxo-cyclohexylamino)-1H-indol-2-yl]-4,5-dihydro-thiazol-4-yl}-acetic acid] | 119 |
| CS(=O)(=O)c1ccc(Oc2cc(NC3CCCC3)c3[nH]c(C4=N[C@H](CC(=O)O)CS4)cc3c2)cc1 [Example 64, {(R)-2-[7-cyclopentylamino-5-(4-methanesulfonyl-phenoxy)-1H-indol-2-yl]-4,5-dihydro-thiazol-4-yl}-acetic acid] | 17 |
| COC(=O)C[C@@H]1CSC(c2cc3cc(COc4ccccc4)cc(NC4CCCC4)c3[nH]2)=N1 [Example 65, [(R)-2-(7-cyclopentylamino-5-phenoxymethyl-1H-indol-2-yl)-4,5-dihydro-thiazol-4-yl]-acetic acid methyl ester] | 23 |
| CS(=O)(=O)Cc1cc(NC2CCCC2)c2[nH]c(C3=N[C@H](CC(=O)O)CS3)cc2c1 [Example 69, [(R)-2-(7-cyclopentylamino-5-methanesulfonylmethyl-1H-indol-2-yl)-4,5-dihydro-thiazol-4-yl]-acetic acid] | 64 |
| CS(=O)(=O)Cc1cc(NC2CCCC2)c2[nH]c(C3=N[C@H](CCO)CS3)cc2c1 [Example 70, 2-[(R)-2-(7-cyclopentylamino-5-methanesulfonylmethyl-1H-indol-2-yl)-4,5-dihydro-thiazol-4-yl]-ethanol] | 32 |
| CS(=O)(=O)Cc1cc(NC2CCCC2)c2[nH]c(C3=N[C@H](CCN4CCOCC4)CS3)cc2c1 [Example 71, cyclopentyl-{5-methanesulfonylmethyl-2-[(R)-4-(2-morpholin-4-yl-ethyl)-4,5-dihydro-thiazol-2-yl]-1H-indol-7-yl}-amine] | 31 |
| CC(=O)N1CCN(CC[C@@H]2CSC(c3cc4cc(CS(C)(=O)=O)cc(NC5CCCC5)c4[nH]3)=N2)CC1 [Example 72, 1-(4-{2-[(R)-2-(7-cyclopentylamino-5-methanesulfonylmethyl-1H-indol-2-yl)-4,5-dihydro-thiazol-4-yl]-ethyl}-piperazin-1-yl)-ethanone] | 51 |
| O=C(C[C@@H]1CSC(c2cc3cc(Cl)cc(NC4CCCC4)c3[nH]2)=N1)N1CCOCC1 [Example 73, 2-[(R)-2-(5-chloro-7-cyclopentylamino-1H-indol-2-yl)-4,5-dihydro-thiazol-4-yl]-1-morpholin-4-yl-ethanone] | 25 |
| O=C(C[C@@H]1CSC(c2cc3cc(Cl)cc(NC4CCCC4)c3[nH]2)=N1)NCCN1CCOCC1 [Example 74, 2-[(R)-2-(5-chloro-7-cyclopentylamino-1H-indol-2-yl)-4,5-dihydro-thiazol-4-yl]-N-(2-morpholin-4-yl-ethyl)-acetamide] | 14 |
| O=C(C[C@@H]1CSC(c2cc3cc(Cl)cc(NC4CCCC4)c3[nH]2)=N1)NCCCN1CCOCC1 [Example 75, 2-[(R)-2-(5-chloro-7-cyclopentylamino-1H-indol-2-yl)-4,5-dihydro-thiazol-4-yl]-N-(3-morpholin-4-yl-propyl)-acetamide] | 21 |
| CNC(=O)C[C@@H]1CSC(c2cc3cc(Cl)cc(NC4CCCC4)c3[nH]2)=N1 [Example 76, 2-[(R)-2-(5-chloro-7-cyclopentylamino-1H-indol-2-yl)-4,5-dihydro-thiazol-4-yl]-N-methyl-acetamide] | 14 |
| CN(C)C(=O)C[C@@H]1CSC(c2cc3cc(Cl)cc(NC4CCCC4)c3[nH]2)=N1 [Example 77, 2-[(R)-2-(5-chloro-7-cyclopentylamino-1H-indol-2-yl)-4,5-dihydro-thiazol-4-yl]-N,N-dimethyl-acetamide] | 27 |
| CN1CCN(C(=O)C[C@@H]2CSC(c3cc4cc(Cl)cc(NC5CCCC5)c4[nH]3)=N2)CC1 [Example 78, 2-[(R)-2-(5-chloro-7-cyclopentylamino-1H-indol-2-yl)-4,5-dihydro-thiazol-4-yl]-1-(4-methyl-piperazin-1-yl)-ethanone] | 25 |
| CN(C)C1CCN(C(=O)C[C@@H]2CSC(c3cc4cc(Cl)cc(NC5CCCC5)c4[nH]3)=N2)C1 (stereo partly drawn) [Example 79, 2-[(R)-2-(5-chloro-7-cyclopentylamino-1H-indol-2-yl)-4,5-dihydro-thiazol-4-yl]-1-(3-dimethylamino-pyrrolidin-1-yl)-ethanone] | 19 |
| O=C(C[C@@H]1CSC(c2cc3cc(Cl)cc(NC4CCCC4)c3[nH]2)=N1)N1CCC(O)C1 (stereo partly drawn) [Example 80, 2-[(R)-2-(5-chloro-7-cyclopentylamino-1H-indol-2-yl)-4,5-dihydro-thiazol-4-yl]-1-(3-hydroxy-pyrrolidin-1-yl)-ethanone] | 21 |
| O=C(C[C@@H]1CSC(c2cc3cc(Cl)cc(NC4CCCC4)c3[nH]2)=N1)N1CCCCC1 [Example 81, 2-[(R)-2-(5-chloro-7-cyclopentylamino-1H-indol-2-yl)-4,5-dihydro-thiazol-4-yl]-1-piperidin-1-yl-ethanone] | 6 |
| CNC(=O)C[C@@H]1CSC(c2cc3cc(Cl)cc(NC4CCOCC4)c3[nH]2)=N1 [Example 82, 2-{(R)-2-[5-chloro-7-(tetrahydro-pyran-4-ylamino)-1H-indol-2-yl]-4,5-dihydro-thiazol-4-yl}-N-methyl-acetamide] | 22 |
| O=C(C[C@@H]1CSC(c2cc3cc(Cl)cc(NC4CCOCC4)c3[nH]2)=N1)N1CCOCC1 [Example 83, 2-{(R)-2-[5-chloro-7-(tetrahydro-pyran-4-ylamino)-1H-indol-2-yl]-4,5-dihydro-thiazol-4-yl}-1-morpholin-4-yl-ethanone] | 45 |
| CN1CCN(C(=O)C[C@@H]2CSC(c3cc4cc(F)cc(NC5CCCC5)c4[nH]3)=N2)CC1 [Example 84, 2-[(R)-2-(7-cyclopentylamino-5-fluoro-1H-indol-2-yl)-4,5-dihydro-thiazol-4-yl]-1-(4-methyl-piperazin-1-yl)-ethanone] | 27 |
| O=C(C[C@@H]1CSC(c2cc3cc(F)cc(NC4CCCC4)c3[nH]2)=N1)NCCN1CCOCC1 [Example 85, 2-[(R)-2-(7-cyclopentylamino-5-fluoro-1H-indol-2-yl)-4,5-dihydro-thiazol-4-yl]-N-(2-morpholin-4-yl-ethyl)-acetamide] | 18 |

From US8309586B2, “Glucokinase activators and pharmaceutical compositions containing the same as an active ingredient” (LG Life Sciences Ltd., priority 2007, dated 2012)
